Experimental data published in PMC3486515 (Investigational new drugs, 2010).
Several values for one entry are separate records, joined by “and”; a condition that tells them apart may be missing. Equal entries are not always repeated. Entries after “also recorded” stand apart in the source; their conditions may differ.

Tests used:
[1] = tested on: advanced solid tumors; assay: Objective response by RECIST; assay type: in vivo, human
[2] = tested on: patients with advanced solid tumors; details: human, in vivo
[3] = tested on: refractory chronic lymphocytic leukemia (CLL); details: cited from earlier work
[4] = tested on: refractory solid tumors; details: 72-hr infusion schedule; cited from earlier work
[5] = tested on: IL-6; assay: Serum cytokine levels by cytokine bead array and ELISA; details: prior to and after flavopiridol infusion
[6] = Plasma pharmacokinetics, LC/MS/MS, non-compartmental analysis
[7] = Flavopiridol protein binding in patient PK samples by micro-equilibrium dialysis; details: for concentration at 4 h: human, plasma, intravenous, Mean free flavopiridol plasma concentration at the end of the 4-hour infusion
[8] = tested on: patients with advanced solid tumors
[9] = All dose levels, 34 pts, first dose, mean ± SD
[10] = dose level 1, 1B (30+30 mg/m^2 bolus+infusion), 6 pts, first dose, mean ± SD
[11] = dose level 2, 2B (30+45 mg/m^2 bolus+infusion), 9 pts, first dose, mean ± SD
[12] = dose level 3 (30+60 mg/m^2 bolus+infusion), 9 pts, first dose, mean ± SD
[13] = dose level 4 (30+75 mg/m^2 bolus+infusion), 2 pts, first dose, mean ± SD
[14] = dose level −1, −1B (20+20 mg/m^2 bolus+infusion), 8 pts, first dose, mean ± SD

## CN1CC[C@H](c2c(O)cc(O)c3c(=O)cc(-c4ccccc4Cl)oc23)[C@H](O)C1 [flavopiridol]
[1]; 34 patients
  Patients off study for progressive disease (PD): 18 patients
[1]; 34 patients with advanced solid tumors, RECIST
  Antitumor (objective) responses: No antitumor responses were observed; also recorded: No objective responses were observed
[1]; after completing two cycles
  Patients with PD: seventeen
[2]
  Adverse event: Deep venous Thrombosis: 1
  Adverse event: Diaphories: 8 (24) N (%)
  Adverse event: Dizziness: 6 (35) N (%)
  Adverse event: Dysphagia: 1
  Adverse event: Dyspnea: 5
  Adverse event: Elevated Alk Phos: 2
  Adverse event: Febrile neutropenia: 1
  Adverse event: Fever: 4 (12) N (%)
  Adverse event: Hyperbilrubinemia: 4 (12) N (%)
  Adverse event: Hypercalcemia: 1
  Adverse event: Hypoxemia: 2
  Adverse event: Nausea and/or vomiting: 20 (59) N (%)
  Adverse event: Somonolence: 4 (12) N (%)
  Adverse event: Tumor lysis syndrome: 1
  Patients off study for grade 3 AEs: 6 patients
  Patients off study for grade 3 AST/ALT: 2 n
  Patients off study for grade 3 CKRS: 4 n
  Patients with CKRS: 41%
  Time to resolution of CKRS symptoms: ≤ 6 h
[3]; PK-directed schedule, single agent, CLL
  Partial response rate: 40%
[3]; phase II study, refractory CLL patients
  Response rate: approximately 50%
[3]; refractory CLL patients
  MTD (bolus+infusion): 30+50 mg/m^2
[3]; refractory CLL, 4-hr infusion
  Maximum-tolerated dose (MTD), infusion: 50 mg/m^2
[3]; refractory CLL, 30-minute loading dose
  Maximum-tolerated dose (MTD), bolus: 30 mg/m^2
[4]
  Major dose-limiting toxicity (DLT): Secretory diarrhea
[5]
  IL-6 serum levels: associated with flavopiridol infusion
  Other serum cytokines (IL-2, IL-4, IL-10, TNF-α, IFNγ): No other cytokines were associated with flavopiridol infusion
[6]; 20 mg/m^2 bolus dose
  Mean end-of-infusion concentration (C0.5): 910 ± 260 µM
[6]; 30 mg/m^2 bolus dose
  Mean end-of-infusion concentration (C0.5): 1420 ± 660 µM
[6]; 5 doses from 40 to 105 mg/m^2
  Dose proportionality of plasma concentrations (Cmax) and AUC: increased proportionally with dose; also recorded: proportional increases in Cmax and AUC
[6]; [9]
  AUCO-∞: 13.6 ± 7.0 hr x µM
  CL: 12.7 ± 6.3 L/hr/m^2
  V2 (volume of distribution): 241 ± 149 L/m^2
[6]; [10]
  AUCO-∞: 13.2 ± 3.4 hr x µM
  CL: 11.9 ± 3.0 L/hr/m^2
  V2 (volume of distribution): 198 ± 82 L/m^2
[6]; [11]
  AUCO-∞: 14.3 ± 6.8 hr x µM
  CL: 15.3 ± 5.8 L/hr/m^2
  Cmax: 1.79 ± 0.83 µM
  V2 (volume of distribution): 307 ± 155 L/m^2
[6]; [12]
  AUCO-∞: 16.6 ± 8.6 hr x µM
  CL: 16.5 ± 7.0 L/hr/m^2
  V2 (volume of distribution): 309 ± 168 L/m^2
[6]; [13]
  AUCO-∞: 20.8 hr x µM and 20.8 ± 5.6 hr x µM
  CL: 13.1 ± 3.6 L/hr/m^2
  Cmax: 2.71 ± 1.08 µM
  V2 (volume of distribution): 260 ± 28 L/m^2
[6]; [14]
  AUCO-∞: 7.9 hr x µM and 7.9 ± 4.2 hr x µM
  CL: 6.1 ± 2.5 L/hr/m^2
  V2 (volume of distribution): 117 ± 99 L/m^2
[6]; human, plasma, intravenous, AUC0–∞, overall mean, all doses (40–105 mg/m^2), 34 patients
  AUC(0-inf): 13.6 ± 7 µM·h
[6]; human, plasma, intravenous, T1/2, All dose levels, 34 pts, first dose, mean ± SD
  half-life: 14.2 ± 8.4 h
[6]; human, plasma, intravenous, Tmax, All dose levels, 34 pts, first dose, mean ± SD
  Tmax: 2.02 ± 1.87 h
[7]; patients who did not experience CKRS (N=20), cycle 1
  concentration at 4 h: 0.02 ± 0.009 µM
[7]; patients with grade 1 or higher CKRS during cycle 1
  concentration at 4 h: 0.035 ± 0.026 µM
[7]; patients with CKRS during cycle 1
  Mean free flavopiridol AUC: 0.318 ± 0.22 µM·h
[7]; patients without observed CKRS during cycle 1
  Mean free flavopiridol AUC: 0.215 ± 0.103 µM·h
[8]; 30-min bolus, weekly for 4 weeks on a 6-week cycle, patients with advanced solid tumors, dose level −1B
  Maximum-tolerated dose, bolus: 20 mg/m^2
[8]; infusion over 4 hours after bolus, weekly for 4 weeks on a 6-week cycle, patients with advanced solid tumors, dose level −1B
  Maximum-tolerated dose, infusion: 20 mg/m^2
[8]; on study
  Deaths attributed to CKRS: One death on the study was attributed to CKRS
[8]; patients with advanced solid tumors
  MTD (bolus+infusion): 20+20 mg/m^2

## C[C@@H]1C[C@H]2[C@@H]3CCC4=CC(=O)C=C[C@]4(C)[C@@]3(F)[C@@H](O)C[C@]2(C)[C@@]1(O)C(=O)CO [dexamethasone]
[8]; prophylactic dexamethasone 20 mg prior to bolus dose of flavopiridol
  Effect on frequency/incidence of CKRS: did not impact the frequency of CKRS; also recorded: did not impact the incidence of CKRS; also recorded: not associated with decreased occurrence of CKRS
